In patent publication US20250376468A1, “PYRAZOLO[1,5-a]PYRIDINE DERIVATIVES FOR TREATING TRPM3-MEDIATED DISORDERS” (Katholieke Universiteit Leuven, priority 2022, published 2025):

Biological target: T1, mouse TRPM3α2 (mTRPM3) ion channel (Mus musculus, UniProt J9SQF3)
T1 construct: expressed in transfected cells; host or cells: flip-in HEK293 (Flp-In HEK293) overexpressing mTRPM3alpha2
Assay: TRPM3 ion channel driven Ca2+ uptake, Fluo-4 AM assay, stimulated with pregnenolone sulfate (50 μM)
Type: cell-based
Settings: TRPM3 overexpressing flip-in HEK293 cells, PS 50 μM, 2.4 mM Ca2+
Procedure: In order to monitor the inhibition of the mouse TRPM3α2 (mTRPM3) ion channel by the compounds of the invention, a cellular system making use of an mTRPM3alpha2 or hTRPM3 overexpressing cell line (flip-in HEK293) was used. The TRPM3 channel was stimulated/opened with Pregnenolone sulfate (PS) (50 μM) which results in Ca^2+ influx.
For mTRPM3, the intracellular Ca^2+ was measured with a Calcium responsive dye, Fluor-4 AM ester (Invitrogen). Cells were cultured until a confluence of 80-90%, washed with Versene (Invitrogen) and detached from the surface by a short incubation with 0.05% Trypsin (Invitrogen). The […] was stopped by the addition of complete cell culture medium (DMEM, glutamax, 10% FCS, NEAA, Pen-Strep). Cells were collected and resuspended in Krebs buffer without Calcium at RT.
Prior the cell seeding (±2000 cells/well into a black, 384 well plate (Greiner)) the diluted compound was added in the assay plate, together with the PS dissolved in Krebs buffer containing Calcium. […] Directly after cell addition the plates were read on an Envision fluorescence reader (Perkin Elmer) by an Excitation of 485 nm and emission at 535 nm.
Channel inhibition was calculated compared to a non-PS stimulated control versus a condition stimulated with PS (50 μM) with vehicle. The ability of the compounds of the invention to inhibit this activity was determined as: Percentage inhibition=[1−((RFU determined for sample with test compound present−RFU determined for sample with positive control inhibitor) divided by (RFU determined in the presence of vehicle−RFU determined for sample with positive control inhibitor))]*100.
The activities of the Example compounds cpd 001-091 tested are depicted in the table below. All tested compounds show an activity in the Fluo-4 AM assay. The activity ranges A, B and C refer to IC50 values in the Fluo-4 AM assay as follows: “A”: IC50<1 μM; “B”: 1 μM≤IC50≤20 μM and “C”: IC50>20 μM.

T1 sequence (J9SQF3 1-1709 isoform J9SQF3-12): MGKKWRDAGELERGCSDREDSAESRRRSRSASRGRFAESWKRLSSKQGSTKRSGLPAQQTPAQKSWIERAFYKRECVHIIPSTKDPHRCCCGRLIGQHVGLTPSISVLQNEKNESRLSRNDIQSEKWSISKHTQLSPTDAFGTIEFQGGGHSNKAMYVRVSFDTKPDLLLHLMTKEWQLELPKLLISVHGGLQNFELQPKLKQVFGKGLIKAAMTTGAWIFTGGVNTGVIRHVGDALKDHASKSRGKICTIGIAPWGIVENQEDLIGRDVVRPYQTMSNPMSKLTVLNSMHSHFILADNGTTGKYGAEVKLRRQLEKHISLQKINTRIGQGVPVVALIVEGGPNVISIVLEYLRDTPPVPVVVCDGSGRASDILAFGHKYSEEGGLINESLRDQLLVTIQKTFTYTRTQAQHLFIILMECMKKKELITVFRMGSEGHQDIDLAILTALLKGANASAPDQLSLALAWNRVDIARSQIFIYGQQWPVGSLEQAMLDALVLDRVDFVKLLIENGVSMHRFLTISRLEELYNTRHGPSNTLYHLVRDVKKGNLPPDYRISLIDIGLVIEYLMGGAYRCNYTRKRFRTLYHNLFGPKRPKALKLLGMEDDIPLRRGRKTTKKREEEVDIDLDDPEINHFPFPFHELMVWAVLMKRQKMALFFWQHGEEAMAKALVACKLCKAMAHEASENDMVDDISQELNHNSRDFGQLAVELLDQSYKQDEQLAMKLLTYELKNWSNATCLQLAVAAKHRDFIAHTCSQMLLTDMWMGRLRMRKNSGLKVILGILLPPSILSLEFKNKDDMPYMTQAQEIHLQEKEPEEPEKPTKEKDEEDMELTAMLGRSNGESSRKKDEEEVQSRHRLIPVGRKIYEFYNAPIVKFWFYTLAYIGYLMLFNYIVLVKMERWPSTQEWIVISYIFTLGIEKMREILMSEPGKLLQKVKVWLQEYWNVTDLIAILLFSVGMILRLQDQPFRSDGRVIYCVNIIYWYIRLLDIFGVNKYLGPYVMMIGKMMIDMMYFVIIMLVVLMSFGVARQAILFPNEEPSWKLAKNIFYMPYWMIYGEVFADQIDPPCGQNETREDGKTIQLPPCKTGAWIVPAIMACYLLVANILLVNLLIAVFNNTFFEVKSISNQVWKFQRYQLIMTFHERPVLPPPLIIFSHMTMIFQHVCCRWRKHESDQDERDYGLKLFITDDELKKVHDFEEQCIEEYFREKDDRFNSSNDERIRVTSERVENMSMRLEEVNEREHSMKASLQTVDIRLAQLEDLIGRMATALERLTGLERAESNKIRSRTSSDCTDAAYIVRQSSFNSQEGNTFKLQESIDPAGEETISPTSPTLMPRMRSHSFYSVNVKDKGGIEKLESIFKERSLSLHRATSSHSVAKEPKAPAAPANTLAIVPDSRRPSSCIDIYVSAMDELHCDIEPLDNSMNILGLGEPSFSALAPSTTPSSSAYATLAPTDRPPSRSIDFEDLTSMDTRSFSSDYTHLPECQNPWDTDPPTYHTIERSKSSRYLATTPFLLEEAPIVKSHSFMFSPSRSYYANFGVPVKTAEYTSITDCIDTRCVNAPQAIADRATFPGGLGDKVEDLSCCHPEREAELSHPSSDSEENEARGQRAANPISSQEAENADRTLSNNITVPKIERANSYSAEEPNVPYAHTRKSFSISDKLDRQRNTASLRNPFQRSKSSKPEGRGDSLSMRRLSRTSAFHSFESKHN

| SMILES | IC50 [µM] |
| --- | --- |
| Cc1ncsc1COc1ccn2nc(C)c(C(=O)N[C@@H](CO)C(N)=O)c2c1 [Cpd 010, (2S)-3-hydroxy-2-({2-methyl-5-[(4-methyl-1,3-thiazol-5-yl)methoxy]pyrazolo[1,5-a]pyridin-3-yl}formamido)propanamide] | 1 to 20 |
| Cc1nn2ccc(OCc3ccccc3Cl)cc2c1C(=O)N[C@@H](CO)C(N)=O [Cpd 012, (2S)-2-({5-[(2-chlorophenyl)methoxy]-2-methylpyrazolo[1,5-a]pyridin-3-yl}formamido)-3-hydroxypropanamide] | < 1 |
| Cc1nn2ccc(OCc3ccccc3Cl)cc2c1C(=O)NC(C)(C)C(N)=O [Cpd 013, 2-({5-[(2-chlorophenyl)methoxy]-2-methylpyrazolo[1,5-a]pyridin-3-yl}formamido)-2-methylpropanamide] | 1 to 20 |
| Cc1nn2ccc(OCc3ccccc3Cl)cc2c1C(=O)NC(C)(CO)CO [Cpd 014, 5-[(2-chlorophenyl)methoxy]-N-(1,3-dihydroxy-2-methylpropan-2-yl)-2-methylpyrazolo[1,5-a]pyridine-3-carboxamide] | < 1 |
| Cc1nn2ccc(OCc3ccccc3)cc2c1C(=O)O [Cpd 033, 5-(benzyloxy)-2-methylpyrazolo[1,5-a]pyridine-3-carboxylic acid] | > 20 |
| Cc1nn2ccc(OCC3CC3)cc2c1C(=O)O [Cpd 034, 5-(cyclopropylmethoxy)-2-methylpyrazolo[1,5-a]pyridine-3-carboxylic acid] | > 20 |
| Cc1nn2ccc(OCc3ccccc3F)cc2c1C(=O)O [Cpd 035, 5-[(2-fluorophenyl)methoxy]-2-methylpyrazolo[1,5-a]pyridine-3-carboxylic acid] | > 20 |
| Cc1nn2ccc(OCc3ccccc3Cl)cc2c1C(=O)O [Cpd 036, 5-[(2-chlorophenyl)methoxy]-2-methylpyrazolo[1,5-a]pyridine-3-carboxylic acid] | > 20 |
| Cc1nn2ccc(OCc3ccccn3)cc2c1C(=O)NCC(F)(F)F [Cpd 042, 2-methyl-5-[(pyridin-2-yl)methoxy]-N-(2,2,2-trifluoroethyl)pyrazolo[1,5-a]pyridine-3-carboxamide] | > 20 |
| Cc1nn2ccc(OCc3ccccn3)cc2c1C(=O)NCCO [Cpd 043, N-(2-hydroxyethyl)-2-methyl-5-[(pyridin-2-yl)methoxy]pyrazolo[1,5-a]pyridine-3-carboxamide] | > 20 |
| Cc1nn2ccc(OCc3ccccn3)cc2c1C(=O)NCc1ncc[nH]1 [Cpd 044, N-[(1H-imidazol-2-yl)methyl]-2-methyl-5-[(pyridin-2-yl)methoxy]pyrazolo[1,5-a]pyridine-3-carboxamide] | 1 to 20 |
| Cc1nn2ccc(OCc3ccccn3)cc2c1C(=O)NCC(C)(C)CN(C)C [Cpd 045, N-[3-(dimethylamino)-2,2-dimethylpropyl]-2-methyl-5-[(pyridin-2-yl)methoxy]pyrazolo[1,5-a]pyridine-3-carboxamide] | 1 to 20 |
| Cc1nn2ccc(OCc3ccccn3)cc2c1C(=O)NCC(F)(F)c1ccccc1 [Cpd 046, N-(2,2-difluoro-2-phenylethyl)-2-methyl-5-[(pyridin-2-yl)methoxy]pyrazolo[1,5-a]pyridine-3-carboxamide] | > 20 |
| Cc1nn2ccc(OCc3ccccn3)cc2c1C(=O)NCc1c(F)cccc1C(F)(F)F [Cpd 047, N-{[2-fluoro-6-(trifluoromethyl)phenyl]methyl}-2-methyl-5-[(pyridin-2-yl)methoxy]pyrazolo[1,5-a]pyridine-3-carboxamide] | 1 to 20 |
| Cc1nn2ccc(OCc3ccccn3)cc2c1C(=O)NCc1cccc(OC(F)F)c1 [Cpd 048, N-{[3-(difluoromethoxy)phenyl]methyl}-2-methyl-5-[(pyridin-2-yl)methoxy]pyrazolo[1,5-a]pyridine-3-carboxamide] | > 20 |
| Cc1nn2ccc(OCc3ccccn3)cc2c1C(=O)NC1(CO)CC(F)(F)C1 [Cpd 055, N-[3,3-difluoro-1-(hydroxymethyl)cyclobutyl]-2-methyl-5-[(pyridin-2-yl)methoxy]pyrazolo[1,5-a]pyridine-3-carboxamide] | 1 to 20 |
| Cc1nn2ccc(OCc3ccccn3)cc2c1C(=O)Nc1cc(C(F)(F)F)cnc1O [Cpd 056, N-[2-hydroxy-5-(trifluoromethyl)pyridin-3-yl]-2-methyl-5-[(pyridin-2-yl)methoxy]pyrazolo[1,5-a]pyridine-3-carboxamide] | > 20 |
| Cc1nn2ccc(OCc3ccccn3)cc2c1C(=O)NC1(CO)COC(C)(C)OC1 [Cpd 057, N-[5-(hydroxymethyl)-2,2-dimethyl-1,3-dioxan-5-yl]-2-methyl-5-[(pyridin-2-yl)methoxy]pyrazolo[1,5-a]pyridine-3-carboxamide] | > 20 |
| Cc1nn2ccc(OCc3ccccn3)cc2c1C(=O)NC1(CO)CC1(F)F (centres unmarked) [Cpd 071, N-[2,2-difluoro-1-(hydroxymethyl)cyclopropyl]-2-methyl-5-[(pyridin-2-yl)methoxy]pyrazolo[1,5-a]pyridine-3-carboxamide] | > 20 |
| Cc1nn2ccc(OCc3ccccn3)cc2c1C(=O)N[C@H](CO)CC(N)=O [Cpd 076 - En1, (S)-4-hydroxy-3-({2-methyl-5-[(pyridin-2-yl)methoxy]pyrazolo[1,5-a]pyridin-3-yl}formamido)butanamide] | > 20 |
| Cc1nn2ccc(OCc3ccccn3)cc2c1C(=O)NC(CO)CC(N)=O (centres unmarked) [Cpd 076 - En2] | > 20 |
| Cc1nn2ccc(OCc3ccccn3)cc2c1C(=O)NC(CO)C1CCOCC1 (centres unmarked) [Cpd 077 - En2] | > 20 |
| Cc1nn2ccc(OCc3ccccn3)cc2c1C(=O)NC(CO)Cc1ncccn1 (centres unmarked) [Cpd 079 - En 1] | > 20 |
